Reference: PMC12452633 (RSC Medicinal Chemistry, 2025)

Experiments:
Ku70/80 = Ku70/80 (Homo sapiens, UniProt P12956+P13010); assay: Ku–DNA binding EMSA; details: for IC50: Ku70/80 (IC50), purified Ku70/80, direct DNA binding activity by EMSA
DNA-PK = DNA-PK (Homo sapiens, UniProt P12956+P13010); assay: DNA-PK phosphoryl-transferase catalytic; type: biochemical
[1] = CF3 in place of CH3 on pyrazolone ring

Sequence of Ku70/80 (P12956 whole entry): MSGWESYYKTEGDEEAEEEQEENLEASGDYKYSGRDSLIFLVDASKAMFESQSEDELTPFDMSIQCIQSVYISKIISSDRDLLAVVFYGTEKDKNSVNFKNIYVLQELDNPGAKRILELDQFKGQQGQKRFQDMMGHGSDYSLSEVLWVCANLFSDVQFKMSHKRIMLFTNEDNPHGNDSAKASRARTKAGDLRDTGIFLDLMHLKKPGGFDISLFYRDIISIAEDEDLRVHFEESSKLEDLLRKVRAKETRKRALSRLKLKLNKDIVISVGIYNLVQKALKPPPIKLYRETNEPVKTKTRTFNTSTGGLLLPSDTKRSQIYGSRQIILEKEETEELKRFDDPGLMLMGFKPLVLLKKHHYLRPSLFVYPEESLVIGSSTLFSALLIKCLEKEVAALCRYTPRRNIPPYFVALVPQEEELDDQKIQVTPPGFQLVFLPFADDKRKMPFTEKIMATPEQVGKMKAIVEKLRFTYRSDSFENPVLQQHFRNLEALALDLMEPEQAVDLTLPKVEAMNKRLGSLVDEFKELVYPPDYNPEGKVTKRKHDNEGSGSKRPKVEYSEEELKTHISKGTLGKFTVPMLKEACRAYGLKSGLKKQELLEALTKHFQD
Sequence of Ku70/80 (P13010 whole entry): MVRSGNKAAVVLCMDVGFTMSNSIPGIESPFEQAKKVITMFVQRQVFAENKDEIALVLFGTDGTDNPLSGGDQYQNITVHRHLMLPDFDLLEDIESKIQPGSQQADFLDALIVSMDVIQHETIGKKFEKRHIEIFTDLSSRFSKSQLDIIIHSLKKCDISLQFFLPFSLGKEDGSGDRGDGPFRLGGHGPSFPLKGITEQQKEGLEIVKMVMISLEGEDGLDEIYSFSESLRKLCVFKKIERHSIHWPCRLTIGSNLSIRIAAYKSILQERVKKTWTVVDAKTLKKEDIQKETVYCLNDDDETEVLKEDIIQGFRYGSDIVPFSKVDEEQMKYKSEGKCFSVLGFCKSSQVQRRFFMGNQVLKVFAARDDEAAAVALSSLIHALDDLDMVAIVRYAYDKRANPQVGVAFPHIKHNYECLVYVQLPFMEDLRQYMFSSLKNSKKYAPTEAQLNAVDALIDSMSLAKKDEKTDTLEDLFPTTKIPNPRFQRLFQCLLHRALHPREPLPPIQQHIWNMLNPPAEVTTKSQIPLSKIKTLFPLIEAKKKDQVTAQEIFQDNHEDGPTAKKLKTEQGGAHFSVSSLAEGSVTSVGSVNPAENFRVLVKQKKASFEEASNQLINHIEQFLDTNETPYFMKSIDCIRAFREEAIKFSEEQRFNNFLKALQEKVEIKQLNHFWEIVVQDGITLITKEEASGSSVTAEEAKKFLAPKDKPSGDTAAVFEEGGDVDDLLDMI
Sequence of DNA-PK (P12956 whole entry): as the sequence (P12956 whole entry) above
Sequence of DNA-PK (P13010 whole entry): as the sequence (P13010 whole entry) above

SMILES: O=C(O)c1cccc(N2N=C(C(F)(F)F)/C(=C/c3ccc(-c4ccc(Cl)c(C(=O)O)c4)o3)C2=O)c1 [Compound 16, (Z)-5-(5-((1-(3-carboxyphenyl)-5-oxo-3-(trifluoromethyl)-1,5-dihydro-4H-pyrazol-4-ylidene)methyl)furan-2-yl)-2-chlorobenzoic acid]
- IC50 (Ku70/80): 16.4 ± 3.94 µM

SMILES: CC1=NN(c2cccc(C(=O)O)c2)C(=O)/C1=C\c1ccc(-c2ccc(Cl)c(C(=O)NCc3ccccc3)c2)o1 [Compound 37, (Z)-3-(4-((5-(3-(Benzylcarbamoyl)-4-chlorophenyl)furan-2-yl)methylene)-3-methyl-5-oxo-4,5-dihydro-1H-pyrazol-1-yl)benzoic acid]
- IC50 (DNA-PK): 0.83 ± 0.09 µM
- IC50 (Ku70/80): 8.22 ± 0.45 µM

SMILES: CC1=NN(c2cccc(C(=O)O)c2)C(=O)/C1=C\c1ccc(-c2ccc(Cl)c(C(=O)NCc3ccccc3Cl)c2)o1 [Compound 38, (Z)-3-(4-((5-(4-Chloro-3-((2-chlorobenzyl)carbamoyl)phenyl)furan-2-yl)methylene)-3-methyl-5-oxo-4,5-dihydro-1H-pyrazol-1-yl)benzoic acid]
- IC50 (DNA-PK): 1.74 ± 0.61 µM
- IC50 (Ku70/80): 3.55 ± 0.4 µM

SMILES: CC1=NN(c2cccc(C(=O)O)c2)C(=O)/C1=C\c1ccc(-c2ccc(Cl)c(C(=O)NCC3CCCCC3)c2)o1 [Compound 39, (Z)-3-(4-((5-(4-Chloro-3-((cyclohexylmethyl)carbamoyl)phenyl)furan-2-yl)methylene)-3-methyl-5-oxo-4,5-dihydro-1H-pyrazol-1-yl)benzoic acid]
- IC50 (Ku70/80): 22.6 ± 4.4 µM

SMILES: COc1cccc(NC(=O)c2cc(-c3ccc(/C=C4\C(=O)N(c5cccc(C(=O)O)c5)N=C4C)s3)ccc2Cl)c1 [Compound 40, (Z)-3-(4-((5-(4-Chloro-3-((3-methoxyphenyl)carbamoyl)phenyl)thiophen-2-yl)methylene)-3-methyl-5-oxo-4,5-dihydro-1H-pyrazol-1-yl)benzoic acid]
- IC50 (DNA-PK): 1.72 ± 0.18 µM
- IC50 (Ku70/80): 7.18 ± 2.24 µM

SMILES: COc1cccc(NC(=O)c2cc(-c3ccc(/C=C4\C(=O)N(c5ccc(C(=O)O)cc5)N=C4C)s3)ccc2Cl)c1 [Compound 41, (Z)-4-(4-((5-(4-Chloro-3-((3-methoxyphenyl)carbamoyl)phenyl)thiophen-2-yl)methylene)-3-methyl-5-oxo-4,5-dihydro-1H-pyrazol-1-yl)benzoic acid]
- IC50 (DNA-PK): 0.53 ± 0.07 µM
- IC50 (Ku70/80): 9.04 ± 0.36 µM

SMILES: CC1=NN(c2cccc(C(=O)O)c2)C(=O)/C1=C\c1ccc(-c2ccc(Cl)c(C(=O)NCC3CC3)c2)s1 [Compound 42, (Z)-3-(4-((5-(4-Chloro-3-((cyclopropylmethyl)carbamoyl)phenyl)thiophen-2-yl)methylene)-3-methyl-5-oxo-4,5-dihydro-1H-pyrazol-1-yl)benzoic acid]
- IC50 (DNA-PK): 3.04 ± 0.7 µM
- IC50 (Ku70/80): 11.1 ± 0.76 µM

SMILES: CC1=NN(c2cccc(C(=O)O)c2)C(=O)/C1=C\c1ccc(-c2ccc(Cl)c(C(=O)NCc3ccc(F)cc3)c2)s1 [Compound 43, (Z)-3-(4-((5-(4-Chloro-3-((4-fluorobenzyl)carbamoyl)phenyl)thiophen-2-yl)methylene)-3-methyl-5-oxo-4,5-dihydro-1H-pyrazol-1-yl)benzoic acid]
- IC50 (DNA-PK): 3.24 µM
- IC50 (Ku70/80): 10.1 ± 1.4 µM

SMILES: COc1cccc(NC(=O)c2cc(-c3ccc(/C=C4\C(=O)N(c5cccc(C(=O)O)c5)N=C4C)[nH]3)ccc2Cl)c1 [Compound 44, (Z)-3-(4-((5-(4-Chloro-3-((3-methoxyphenyl)carbamoyl)phenyl)-1H-pyrrol-2-yl)methylene)-3-methyl-5-oxo-4,5-dihydro-1H-pyrazol-1-yl)benzoic acid]
- IC50 (DNA-PK): 1.57 ± 0.73 µM
- IC50 (Ku70/80): 9.77 ± 4.16 µM

SMILES: CC1=NN(c2cccc(C(=O)O)c2)C(=O)/C1=C\c1ccc(-c2ccc(Cl)c(C(=O)Nc3cccc(OC(F)(F)F)c3)c2)[nH]1 [Compound 45, (Z)-3-(4-((5-(4-Chloro-3-((3-(trifluoromethoxy)phenyl)carbamoyl)phenyl)-1H-pyrrol-2-yl)methylene)-3-methyl-5-oxo-4,5-dihydro-1H-pyrazol-1-yl)benzoic acid]
- IC50 (DNA-PK): 0.53 ± 0.18 µM
- IC50 (Ku70/80): 6.9 ± 1 µM

SMILES: COc1cccc(CNC(=O)c2cc(-c3ccc(/C=C4\C(=O)N(c5ccc(C(=O)O)cc5)N=C4C)o3)ccc2Cl)c1 [Compound 47, (Z)-4-(4-((5-(4-Chloro-3-((3-methoxybenzyl)carbamoyl)phenyl)furan-2-yl)methylene)-3-methyl-5-oxo-4,5-dihydro-1H-pyrazol-1-yl)benzoic acid]
- IC50 (DNA-PK): 0.48 ± 0.048 µM
- IC50 (Ku70/80): > 25 µM

SMILES: CC1=NN(c2ccc(C(=O)O)cc2)C(=O)/C1=C\c1ccc(-c2ccc(Cl)c(C(=O)NCc3ccccc3)c2)o1 [Compound 48, (Z)-4-(4-((5-(3-(Benzylcarbamoyl)-4-chlorophenyl)furan-2-yl)methylene)-3-methyl-5-oxo-4,5-dihydro-1H-pyrazol-1-yl)benzoic acid]
- IC50 (DNA-PK): 0.48 ± 0.016 µM
- IC50 (Ku70/80): 22.4 ± 4.19 µM

SMILES: CC1=NN(c2ccc(C(=O)O)cc2)C(=O)/C1=C\c1ccc(-c2ccc(Cl)c(C(=O)NCc3cccnc3)c2)o1 [Compound 49, (Z)-4-(4-((5-(4-Chloro-3-((pyridin-3-ylmethyl)carbamoyl)phenyl)furan-2-yl)methylene)-3-methyl-5-oxo-4,5-dihydro-1H-pyrazol-1-yl)benzoic acid]
- IC50 (DNA-PK): 2.5 µM
- IC50 (Ku70/80): > 25 µM

SMILES: COc1cccc(NC(=O)c2cc(-c3ccc(/C=C4\C(=O)N(c5cccc(C(=O)O)c5)N=C4C(F)(F)F)o3)ccc2Cl)c1 [Compound 50, (Z)-3-(4-((5-(4-Chloro-3-((3-methoxyphenyl)carbamoyl)phenyl)furan-2-yl)methylene)-5-oxo-3-(trifluoromethyl)-4,5-dihydro-1H-pyrazol-1-yl)benzoic acid]
- increase in DNA-PK inhibitory activity (DNA-PK; [1]): ~20 fold
- increase in Ku inhibitory activity (Ku70/80; [1]): 2 fold
- IC50 (Ku70/80): 3.36 ± 0.52 µM

SMILES: O=C(O)c1cccc(N2N=C(C(F)(F)F)/C(=C/c3ccc(-c4ccc(Cl)c(C(=O)NCC5CC5)c4)o3)C2=O)c1 [Compound 51, (Z)-3-(4-((5-(4-Chloro-3-((cyclopropylmethyl)carbamoyl)phenyl)furan-2-yl)methylene)-5-oxo-3-(trifluoromethyl)-4,5-dihydro-1H-pyrazol-1-yl)benzoic acid]
- IC50 (DNA-PK): 0.35 µM
- IC50 (Ku70/80): 11.4 ± 8.26 µM

SMILES: O=C(O)c1cccc(N2N=C(C(F)(F)F)/C(=C/c3ccc(-c4ccc(Cl)c(C(=O)NCc5ccc(F)cc5)c4)o3)C2=O)c1 [Compound 52, (Z)-3-(4-((5-(4-Chloro-3-((4-fluorobenzyl)carbamoyl)phenyl)furan-2-yl)methylene)-5-oxo-3-(trifluoromethyl)-4,5-dihydro-1H-pyrazol-1-yl)benzoic acid]
- IC50 (DNA-PK): 0.25 µM
- IC50 (Ku70/80): 9.15 ± 0.68 µM

SMILES: COc1ccc(NC(=O)c2cc(-c3ccc(CC4C(=O)N(c5cccc(C(=O)O)c5)N=C4C)o3)ccc2Cl)cc1OC (centres unmarked) [Compound 54, 3-(4-((5-(4-Chloro-3-((3,4-dimethoxyphenyl)carbamoyl)phenyl)furan-2-yl)methyl)-3-methyl-5-oxo-4,5-dihydro-1H-pyrazol-1-yl)benzoic acid]
- IC50 (DNA-PK): 1.12 ± 0.17 µM
- IC50 (Ku70/80): 9.97 ± 0.4 µM

SMILES: COc1cccc(NC(=O)c2cc(-c3ccc(CC4C(=O)N(c5ccc(C(=O)O)cc5)N=C4C)o3)ccc2Cl)c1 (centres unmarked) [Compound 55, 4-(4-((5-(4-Chloro-3-((3-methoxyphenyl)carbamoyl)phenyl)furan-2-yl)methyl)-3-methyl-5-oxo-4,5-dihydro-1H-pyrazol-1-yl)benzoic acid]
- IC50 (DNA-PK): 0.808 ± 0.037 µM
- IC50 (Ku70/80): 7.67 ± 2.95 µM

SMILES: COc1cccc(CNC(=O)c2cc(-c3ccc(CC4C(=O)N(c5ccc(C(=O)O)cc5)N=C4C)o3)ccc2Cl)c1 (centres unmarked) [Compound 56, 4-(4-((5-(4-Chloro-3-((3-methoxybenzyl)carbamoyl)phenyl)furan-2-yl)methyl)-3-methyl-5-oxo-4,5-dihydro-1H-pyrazol-1-yl)benzoic acid]
- IC50 (DNA-PK): 0.49 ± 0.08 µM
- IC50 (Ku70/80): 12.4 ± 3.8 µM

SMILES: COc1cccc(NC(=O)c2cc(-c3ccc(CC4C(=O)N(c5cccc(C(=O)O)c5)N=C4C)s3)ccc2Cl)c1 (centres unmarked) [Compound 57, 3-(4-((5-(4-Chloro-3-((3-methoxyphenyl)carbamoyl)phenyl)thiophen-2-yl)methyl)-3-methyl-5-oxo-4,5-dihydro-1H-pyrazol-1-yl)benzoic acid]
- IC50 (DNA-PK): 0.4 ± 0.04 µM
- IC50 (Ku70/80): 6.09 ± 0.36 µM

SMILES: CC1=NN(c2cccc(C(=O)O)c2)C(=O)C1Cc1ccc(-c2ccc(Cl)c(C(=O)NCc3ccc(F)cc3)c2)s1 (centres unmarked) [Compound 60, 3-(4-((5-(4-Chloro-3-((4-fluorobenzyl)carbamoyl)phenyl)thiophen-2-yl)methyl)-3-methyl-5-oxo-4,5-dihydro-1H-pyrazol-1-yl)benzoic acid]
- IC50 (DNA-PK): 2.66 ± 1.74 µM
- IC50 (Ku70/80): 4.1 ± 0.3 µM

SMILES: O=C(O)c1cccc(N2N=C(C(F)(F)F)C(Cc3ccc(-c4ccc(Cl)c(C(=O)NCC5CC5)c4)o3)C2=O)c1 (centres unmarked) [Compound 62, 3-(4-((5-(4-Chloro-3-((cyclopropylmethyl)carbamoyl)phenyl)furan-2-yl)methyl)-5-oxo-3-(trifluoromethyl)-4,5-dihydro-1H-pyrazol-1-yl)benzoic acid]
- IC50 (Ku70/80): 14.2 ± 0.21 µM

SMILES: COc1cccc(NC(=O)c2cc(-c3ccc(/C=C4\C(=O)N(c5ccc(S(N)(=O)=O)cc5)N=C4C)o3)ccc2Cl)c1 [Compound 67, (Z)-2-Chloro-N-(3-methoxyphenyl)-5-(5-((3-methyl-5-oxo-1-(4-sulfamoylphenyl)-1,5-dihydro-4H-pyrazol-4-ylidene)methyl)furan-2-yl)benzamide]
- IC50 (DNA-PK): 1.41 ± 0.27 µM
- IC50 (Ku70/80): 11.3 ± 2.16 µM

SMILES: CC1=NN(c2ccc(S(N)(=O)=O)cc2)C(=O)/C1=C\c1ccc(-c2ccc(Cl)c(C(=O)NCC3CC3)c2)o1 [Compound 68, (Z)-2-Chloro-N-(cyclopropylmethyl)-5-(5-((3-methyl-5-oxo-1-(4-sulfamoylphenyl)-1,5-dihydro-4H-pyrazol-4-ylidene)methyl)furan-2-yl)benzamide]
- IC50 (Ku70/80): > 25 µM

SMILES: COc1cccc(NC(=O)c2cc(-c3ccc(/C=C4\C(=O)N(c5cccc(C#N)c5)N=C4C)o3)ccc2Cl)c1 [Compound 74, (Z)-2-chloro-5-(5-((1-(3-cyanophenyl)-3-methyl-5-oxo-1,5-dihydro-4H-pyrazol-4-ylidene)methyl)furan-2-yl)-N-(3-methoxyphenyl)benzamide]
- IC50 (Ku70/80): > 25 µM
- Ku inhibitory activity (qualitative) (Ku70/80; carboxylic acid replaced by nitrile): complete abolition of Ku inhibitory activity
